Test results taken from patent US12600725B2 (Memorial Sloan-Kettering Cancer Center, priority 2013, dated 2026).

Tested on: EGFR and its downstream signaling in HMEC cells
Test: Western blot of EGFR and downstream signaling in normal cells
Type: cell-based, human
Settings: 24 h
Procedure: For comparison, the agent was also tested in a normal cell line, human mammary epithelial cells (HMECs). […] Without wishing to be bound by any particular theory, it is believed that a Grp94 selective inhibitor may therefore have a better therapeutic index than a direct RTK modulator (i.e. TKI or antibody) because it will act on the RTK only in conditions of oncogenic overexpression (see EGFR in TNBC cell lines vs HMEC). […] Approximately half of cases of triple-negative breast cancer (TNBC) and inflammatory breast cancer (IBC) overexpress EGFR, nonetheless clinical trials testing EGFR inhibitors reported lack of or limited benefit (Masuda H. et al. Breast Cancer Res Treat. 2012 November; 136(2):331-45). Without wishing to be bound by any particular theory, it is believed that such ineffectiveness is due to a crosstalk between EGFR and c-Met or other RTKs, because strategies that knocked down EGFR either by siRNA or by mixtures of antibodies that induces robust degradation of EGFR, led to reduced viability of TNBC cells (Mueller et al., Breast Cancer Res. 2012 Jul. 12; 14(4):R^104; Ferraro et al., Proc Natl Acad Sci USA. 2013 Jan. 29; 110(5):1815-20. PMID:23319610). […] Protein concentrations were determined using BCA kit (Pierce) according to the manufacturer's instructions. […]

CC(C)NCCCn1c(Sc2cc(Cl)cc(Cl)c2)nc2c(N)ncnc21 [PU-WS13]
effect on EGFR and its downstream signaling in normal cells: does not affect EGFR and its downstream signaling
